The test system of one assay is HEK293. Description: cells. It counts as functional. As to conditions: Homo sapiens, ATCC CRL1573, HEK293; ASSAY_TEST Inhibition of Cell Viability; detection method Resazurin; Fluorescence (ex560/em590); MEDIA DMEM with 10% FBS; plate type 384well; TC; CORNING #3712; time 18 hr. (In general: The colour change of resazurin is a common sign of viable cells or microbes.)

The next assay concerns Staphylococcus aureus. Put plainly: microbe, parasite or virus in culture. As to conditions: ATCC 43300, 18 h, ASSAY_TEST Inhibition of Bacterial Growth, detection method Absorption (OD600), MEDIA CAMHB, plate type 384well, NBS, CORNING #3640.
The subject of a further assay is Escherichia coli. Put plainly: microbe, parasite or virus in culture. Particulars: ATCC 25922, 18 h, ASSAY_TEST Inhibition of Bacterial Growth, detection method Absorption (OD600), MEDIA CAMHB, plate type 384well, NBS, CORNING #3640.
The next assay relates to Klebsiella pneumoniae. Put plainly: microbe, parasite or virus in culture. Particulars: ATCC 700603, 18 h, ASSAY_TEST Inhibition of Bacterial Growth, detection method Absorption (OD600), MEDIA CAMHB, plate type 384well, NBS, CORNING #3640.
In the next assay the test system is Pseudomonas aeruginosa. Description: microbe, parasite or virus in culture. As to conditions: ATCC 27853, 18 h, ASSAY_TEST Inhibition of Bacterial Growth, detection method Absorption (OD600), MEDIA CAMHB, plate type 384well, NBS, CORNING #3640.
In a further assay the test system is Acinetobacter baumannii. Put plainly: microbe, parasite or virus in culture. As to conditions: ATCC 19606, 18 h, ASSAY_TEST Inhibition of Bacterial Growth, detection method Absorption (OD600), MEDIA CAMHB, plate type 384well, NBS, CORNING #3640.
The next assay has as its system Candida albicans. Put plainly: microbe, parasite or virus in culture. Particulars: ATCC 90028, ASSAY_TEST Inhibition of Fungal Growth, detection method Absorption (OD530), plate type 384well, NBS, CORNING #3640.

≈ marks a conversion by molar mass, not a printed value.

Description for Acinetobacter baumannii: Antibacterial activity against Acinetobacter baumannii ATCC 19606 (CO-ADD:GN_034); MIC in CAMBH media using NBS plates, by OD600
Description for Candida albicans: Antifungal activity against Candida albicans ATCC 90028 (CO-ADD:FG_001); MIC in YNB media using NBS plates, by OD630
Description for Cryptococcus neoformans: Antifungal activity against Cryptococcus neoformans H99 ATCC 208821 (CO-ADD:FG_002); MIC in YNB media using NBS plates, by Resazurin OD(600-570)
Description for Escherichia coli: Antibacterial activity against Escherichia coli ATCC 25922 (CO-ADD:GN_001); MIC in CAMBH media using NBS plates, by OD(600)
Description for Klebsiella pneumoniae: Antibacterial activity against Klebsiella pneumoniae MDR ATCC 70063 (CO-ADD:GN_003); MIC in CAMBH media using NBS plates, by OD(600)
Description for Pseudomonas aeruginosa: Antibacterial activity against Pseudomonas aeruginosa ATCC 27853 (CO-ADD:GN_042); MIC in CAMBH media using NBS plates, by OD(600)
Description for Staphylococcus aureus: Antibacterial activity against Staphylococcus aureus MRSA ATCC 43300 (CO-ADD:GP_020); MIC in CAMBH media, using NBS plates, by OD(600)

Broadly, the CC50 is the concentration at which the toxic effect on the cells reaches its halfway point. Regarding `COC(=O)N1C2CCCCC2=NN(c2ccccc2)N1C(=O)OC` (centres undefined), the cytotoxic concentration (CC50) in the assay on HEK293 is greater than 10 µM. Moreover, the MIC against Cryptococcus neoformans, in the assay on Staphylococcus aureus, against Escherichia coli, against Klebsiella pneumoniae, against Pseudomonas aeruginosa and in the assay on Acinetobacter baumannii was greater than 10 µM in each case. In addition, in the assay with Candida albicans, the MIC is greater than 10 µM.

Turning to `Cc1cc(N)c2cc(NC(=O)/C=C\c3ccccc3Cl)ccc2n1`, in the assay on HEK293, half-maximal cytotoxicity (CC50) was put at 2.78 µM. For the same molecule, the MIC was 5 µM (≈ 1.69 µg/mL) with Cryptococcus neoformans; 10 µM (≈ 3.38 µg/mL) in the assay on Staphylococcus aureus; greater than 10 µM in the assay on Escherichia coli; greater than 10 µM in the assay on Klebsiella pneumoniae; greater than 10 µM in the assay with Pseudomonas aeruginosa; greater than 10 µM in the assay with Acinetobacter baumannii. For the same molecule, the MIC with Candida albicans is greater than 10 µM.

In the assay on HEK293, `CO[C@@]12[C@H](COC(N)=O)C3=C(C(=O)C(C)=C(N)C3=O)N1C[C@@H]1N[C@@H]12` [MITOMYCIN] came in with a CC50 of 9.02 µM. The MIC with Cryptococcus neoformans was greater than 10 µM; in the assay with Staphylococcus aureus, 0.156 µM (≈ 0.0523 µg/mL); against Escherichia coli it was 1.25 µM (≈ 0.418 µg/mL); against Klebsiella pneumoniae, greater than 10 µM; against Pseudomonas aeruginosa it was 10 µM (≈ 3.34 µg/mL); with Acinetobacter baumannii it was 5 µM (≈ 1.67 µg/mL). This molecule registered an MIC against Candida albicans greater than 10 µM.

In the assay on HEK293, `O=C(Nc1ccc(Nc2ccncc2)cc1)c1ccc(Nc2ccnc3ccc([N+](=O)[O-])cc23)cc1[N+](=O)[O-]` returned a CC50 greater than 10 µM. Besides, the MIC against Cryptococcus neoformans, against Staphylococcus aureus, in the assay with Escherichia coli, in the assay with Klebsiella pneumoniae, in the assay with Pseudomonas aeruginosa and against Acinetobacter baumannii was greater than 10 µM each time. The MIC in the assay on Candida albicans is greater than 10 µM.

On to `COC(=O)C1C(O)C(C)C(O)C(C)/C=C\C=C(/C)C(=O)Nc2c(C)c(OC(C)=O)c3c(c2O)C(=O)C(C)=C2OCOC(=C23)/C(C)=C/C(C)(O)C(O)C(C)C1O` (centres undefined), for which it took 9.11 µM to reach half-maximal cytotoxicity in the assay with HEK293 (CC50). The MIC was greater than 10 µM against Cryptococcus neoformans; 1.25 µM (≈ 0.962 µg/mL) against Staphylococcus aureus; greater than 10 µM in the assay with Escherichia coli; greater than 10 µM in the assay on Klebsiella pneumoniae; greater than 10 µM in the assay with Pseudomonas aeruginosa; greater than 10 µM against Acinetobacter baumannii. Moreover, in the assay on Candida albicans, the MIC is greater than 10 µM.

In the case of `SC1=NC2(CCCCCC2)NN1c1ccccc1`, the CC50 in the assay on HEK293 is greater than 10 µM. Further, the MIC in the assay with Cryptococcus neoformans, against Staphylococcus aureus, in the assay with Escherichia coli, in the assay on Klebsiella pneumoniae, with Pseudomonas aeruginosa and with Acinetobacter baumannii was greater than 10 µM throughout. In addition, the MIC against Candida albicans was greater than 10 µM.

For the molecule `CCOC(=O)c1ccc(Nc2sc(C(=O)c3cccc([N+](=O)[O-])c3)c(N)c2C#N)cc1`, the CC50 in the assay with HEK293 is greater than 10 µM. Further, the MIC in the assay on Cryptococcus neoformans, with Staphylococcus aureus, against Escherichia coli, with Klebsiella pneumoniae, in the assay with Pseudomonas aeruginosa and against Acinetobacter baumannii was greater than 10 µM each time. This molecule registered an MIC in the assay with Candida albicans greater than 10 µM.

As to `CCN1CCCC(Sc2nc3c(=S)n(C)c(=O)n(C)c3[nH]2)C1` (centres undefined), the 50% cytotoxic concentration (CC50) with HEK293 is greater than 10 µM. Also, the MIC against Cryptococcus neoformans, in the assay on Staphylococcus aureus, with Escherichia coli, against Klebsiella pneumoniae, against Pseudomonas aeruginosa and with Acinetobacter baumannii was greater than 10 µM in each case. Further, the MIC with Candida albicans is greater than 10 µM.

`Sc1ncnc2c1ncn2C1CCCO1` (centres undefined) came in with a CC50 in the assay with HEK293 greater than 10 µM. Further, the MIC against Cryptococcus neoformans, in the assay on Staphylococcus aureus, in the assay on Escherichia coli, in the assay with Klebsiella pneumoniae, in the assay on Pseudomonas aeruginosa and in the assay with Acinetobacter baumannii was greater than 10 µM each time. Besides, the MIC in the assay on Candida albicans is greater than 10 µM.

For `Cc1ccc(NCCN(C)C)c2c(=O)c3cc(O)ccc3sc12`, the CC50 in the assay on HEK293 came out at 1.3 µM. The MIC in the assay with Cryptococcus neoformans, with Staphylococcus aureus, in the assay on Escherichia coli, in the assay with Klebsiella pneumoniae, against Pseudomonas aeruginosa and in the assay with Acinetobacter baumannii was greater than 10 µM in each case. The molecule also yielded an MIC against Candida albicans greater than 10 µM.

Regarding `COC1C(OC(=O)c2ccc(C)[nH]2)C(O)C(Oc2ccc3c(O)c(NC(=O)c4ccc(O)c(CC=C(C)C)c4)c(=O)oc3c2Cl)OC1(C)C` (centres undefined), the midpoint of cytotoxicity with HEK293, the CC50, lay at 9.55 µM. The MIC with Cryptococcus neoformans is greater than 10 µM; in the assay with Staphylococcus aureus, no more than 0.0781 µM; against Escherichia coli, greater than 10 µM; with Klebsiella pneumoniae, greater than 10 µM; against Pseudomonas aeruginosa, 10 µM (≈ 6.97 µg/mL); in the assay on Acinetobacter baumannii, greater than 10 µM. Also, the MIC against Candida albicans is greater than 10 µM.

In the assay on HEK293, `Cc1c2cc[n+](CCN3CCCCC3)cc2c(C)c2c1[nH]c1ccc(O)cc12` displayed a 50% cytotoxic concentration (CC50) greater than 10 µM. In addition, the MIC in the assay with Cryptococcus neoformans is 10 µM; against Staphylococcus aureus it was greater than 10 µM; against Escherichia coli, greater than 10 µM; in the assay on Klebsiella pneumoniae, greater than 10 µM; against Pseudomonas aeruginosa it was greater than 10 µM; in the assay with Acinetobacter baumannii, greater than 10 µM. Also, the MIC against Candida albicans was greater than 10 µM.

Turning to `Cn1c(=S)c2nc(SCCN3CCCC3)[nH]c2n(C)c1=O`, in the assay on HEK293, the 50% cytotoxic concentration (CC50) was greater than 10 µM. The MIC against Cryptococcus neoformans was greater than 10 µM; in the assay on Staphylococcus aureus, greater than 10 µM; against Escherichia coli, 0.156 µM (≈ 0.0509 µg/mL); against Klebsiella pneumoniae, greater than 10 µM; against Pseudomonas aeruginosa, greater than 10 µM; in the assay on Acinetobacter baumannii, greater than 10 µM. Moreover, in the assay on Candida albicans, the MIC was greater than 10 µM.

With `O=C(Nc1ccc(C2=NCCN2)cc1)c1ccc(Cl)c(C(=O)Nc2ccc(C3=NCCN3)cc2)c1`, the 50% cytotoxic concentration (CC50) in the assay with HEK293 is greater than 10 µM. Also, the MIC against Cryptococcus neoformans, against Staphylococcus aureus, in the assay on Escherichia coli, in the assay with Klebsiella pneumoniae, with Pseudomonas aeruginosa and with Acinetobacter baumannii was greater than 10 µM each time. In the assay on Candida albicans, this molecule showed an MIC greater than 10 µM.

Consider `Cc1cc2cc3c(O)nc(O)nc3nc2cc1C`, for which the half-maximal cytotoxic concentration (CC50) in the assay with HEK293 was greater than 10 µM. Moreover, the MIC with Cryptococcus neoformans, against Staphylococcus aureus, against Escherichia coli, in the assay on Klebsiella pneumoniae, in the assay with Pseudomonas aeruginosa and against Acinetobacter baumannii was greater than 10 µM throughout. In the assay with Candida albicans, this molecule gave an MIC greater than 10 µM.

In turn, `O=C1C=C(c2ccccc2)OC(=O)C1C(=O)c1ccccc1` (centres undefined) displayed a half-maximal cytotoxic concentration (CC50) in the assay with HEK293 greater than 10 µM. The MIC in the assay on Cryptococcus neoformans, in the assay with Staphylococcus aureus, against Escherichia coli, against Klebsiella pneumoniae, with Pseudomonas aeruginosa and against Acinetobacter baumannii was greater than 10 µM throughout. In the assay on Candida albicans, this molecule registered an MIC greater than 10 µM.

`CN(C)c1n/c(=N/c2cccc(Cl)c2)ss1` showed a CC50 in the assay on HEK293 greater than 10 µM. For the same molecule, the MIC against Cryptococcus neoformans, in the assay with Staphylococcus aureus, in the assay with Escherichia coli, against Klebsiella pneumoniae, in the assay with Pseudomonas aeruginosa and against Acinetobacter baumannii was greater than 10 µM each time. In the assay with Candida albicans, this molecule showed an MIC of 10 µM (≈ 2.72 µg/mL).

Consider `O=C(Nc1ccccc1)C1=C(Nc2ccccc2)CSC1`, for which the half-maximal cytotoxic concentration (CC50) in the assay on HEK293 is greater than 10 µM. Further, the MIC in the assay on Cryptococcus neoformans, against Staphylococcus aureus, against Escherichia coli, in the assay with Klebsiella pneumoniae, in the assay on Pseudomonas aeruginosa and against Acinetobacter baumannii was greater than 10 µM in each case. The molecule also showed an MIC in the assay on Candida albicans greater than 10 µM.

`CN(C)CCOc1ccc2c(c1)C(=O)/C(=C\c1ncc([N+](=O)[O-])n1C)C2` returned a CC50 in the assay with HEK293 of 1.55 µM. Also, the MIC in the assay on Cryptococcus neoformans was greater than 10 µM; in the assay with Staphylococcus aureus, 5 µM (≈ 1.78 µg/mL); in the assay with Escherichia coli, 0.156 µM (≈ 0.0557 µg/mL); in the assay on Klebsiella pneumoniae, greater than 10 µM; with Pseudomonas aeruginosa, greater than 10 µM; in the assay with Acinetobacter baumannii, greater than 10 µM. Besides, in the assay on Candida albicans, the MIC was greater than 10 µM.

Take `CC1(C)CC(=O)CC(C)(C)N1O`: the 50% cytotoxic concentration (CC50) in the assay with HEK293 is greater than 10 µM. Further, the MIC in the assay on Cryptococcus neoformans, against Staphylococcus aureus, with Escherichia coli, with Klebsiella pneumoniae, in the assay on Pseudomonas aeruginosa and in the assay with Acinetobacter baumannii was greater than 10 µM in each case. This molecule had an MIC against Candida albicans greater than 10 µM.

In the case of `Nc1ccc(S(=O)(=O)Nc2cnc3ccccc3n2)cc1` [SULFAQUINOXALINE], in the assay on HEK293, the 50% cytotoxic concentration (CC50) was greater than 10 µM. Moreover, the MIC in the assay with Cryptococcus neoformans, against Staphylococcus aureus, against Escherichia coli, with Klebsiella pneumoniae, in the assay with Pseudomonas aeruginosa and with Acinetobacter baumannii was greater than 10 µM in each case. Besides, in the assay with Candida albicans, the MIC is greater than 10 µM.

`Cc1cc2nc(CS)[nH]c2cc1C` returned a cytotoxic concentration (CC50) in the assay on HEK293 greater than 10 µM. The MIC against Cryptococcus neoformans, in the assay on Staphylococcus aureus, in the assay on Escherichia coli, in the assay on Klebsiella pneumoniae, against Pseudomonas aeruginosa and against Acinetobacter baumannii was greater than 10 µM each time. The MIC against Candida albicans was greater than 10 µM.

Molecule `O=[N+]([O-])c1ccc(-c2ccccc2)c([As](=O)(O)O)c1` showed a CC50 in the assay with HEK293 greater than 10 µM. Besides, the MIC against Cryptococcus neoformans, with Staphylococcus aureus, in the assay with Escherichia coli, in the assay on Klebsiella pneumoniae, with Pseudomonas aeruginosa and in the assay on Acinetobacter baumannii was greater than 10 µM each time. In the assay on Candida albicans, this molecule returned an MIC greater than 10 µM.
